{
  "source": "paper PMC4457826",
  "about": "(PLoS Pathogens, 2015)",
  "key": {"USP7-CTD": {"molecular_target": "T1, USP7-CTD (Homo sapiens, UniProt Q93009)", "T1 construct": "USP7-CTD (535–1102); His tag (inferred from nickel-NTA purification; vector p15TV-L); made in house; host or cells: E. coli BL21(DE3)mgk", "T1 sequence (Q93009 535-1102)": "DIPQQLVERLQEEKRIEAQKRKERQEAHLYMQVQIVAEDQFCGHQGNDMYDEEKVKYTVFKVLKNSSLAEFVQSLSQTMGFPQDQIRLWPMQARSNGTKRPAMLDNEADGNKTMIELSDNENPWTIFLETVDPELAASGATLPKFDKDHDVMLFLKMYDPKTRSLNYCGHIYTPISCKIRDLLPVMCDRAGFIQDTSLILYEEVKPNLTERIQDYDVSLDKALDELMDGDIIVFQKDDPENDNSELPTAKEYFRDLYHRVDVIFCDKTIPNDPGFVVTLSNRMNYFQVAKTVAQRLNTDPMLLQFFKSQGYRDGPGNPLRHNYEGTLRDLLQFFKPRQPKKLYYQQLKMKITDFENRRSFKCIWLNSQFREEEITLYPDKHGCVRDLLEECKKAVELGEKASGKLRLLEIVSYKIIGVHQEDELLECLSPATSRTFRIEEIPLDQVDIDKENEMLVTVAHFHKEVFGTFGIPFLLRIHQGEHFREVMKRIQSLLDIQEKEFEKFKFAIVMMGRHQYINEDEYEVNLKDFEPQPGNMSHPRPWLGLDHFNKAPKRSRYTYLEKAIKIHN", "test": "GST pull-down, USP7-CTD", "assay_type": "binding", "conditions": "GST fusions 250 μg + USP7-CTD 250 μg, 50 mM Tris pH 8.0, 100 mM NaCl, 5 mM DTT, 5% glycerol, overnight 4°C; Coomassie stained gel; Fig 1A/1D; symbols not defined", "protocol": "(§1) Fragments representing USP7-CTD Ubl domains were prepared using ligation independent cloning with In-Fusion (Clontech) in p15TV-L. The boundaries of the Ubl domain constructs are Ubl12 (535–776), Ubl123 (535–889), Ubl345 (776–1102), Ubl45 (886–1102) and USP7-CTD (535–1102). Plasmids expressing USP7-NTD, USP7, and myc-USP7 WT (pCANmycUSP7) were described previously. USP7 mutants E759A, D762A, D764A and D762A/D764A in Ubl123 were synthesized (Genscript) and inserted into the pET15b plasmid. USP7 mutants E759A, D762A, D764A, D762A/D764A and D762R/D764R in USP7-CTD were prepared by ACGT Corporation. The D762R/D764R mutant was then sub-cloned into wild-type pCANmycUSP7 for co-IP assays. The mammalian ICP0 expression construct pCI-110 ICP0 was obtained from Roger Everett.\n(§2) The ICP0, GMPS and UHRF1 WT and mutant peptides were cloned into pGEX-2TK and expressed in E. coli BL21(DE3). GST-ICP0 594–775 was obtained from Roger Everett. The GST-ICP0 or GST-GMPS or GST-UHRF1 or GST-ICP0 594–775 cell pellets from 500 ml of LB broth were re-suspended with PBS and lysed using sonication. The cleared lysates were applied to 500 μl of equilibrated glutathione-sepharose beads and incubated with rocking for 60 min at 4°C. Unbound proteins were removed by washing with PBS. Bound proteins were eluted with 50 mM Tris pH 8.0 and 100 mM NaCL containing 30 mM reduced glutathione. Equal amounts (250 μg) of the various USP7 proteins were incubated with 250 μg of the GST-ICP0 or GST-GMPS or GST-UHRF1 or GST-ICP0 594–775 peptides in 50 mM Tris pH 8.0, 100 mM NaCl, 5 mM DTT, 5% glycerol, 0.1 mM Benzamidine and 0.05 mM PMSF, applied to equilibrated glutathione-sepharose beads and incubated overnight with rocking at 4°C. After extensive washing, bound proteins were eluted with 50 mM Tris pH 8.0 and 100 mM NaCl containing 30 mM reduced glutathione."}, "FL-USP7": {"test_system": "FL-USP7", "test": "GST pull-down, USP7-FL", "assay_type": "binding, human", "conditions": "GST fusions 250 μg + USP7 250 μg, 50 mM Tris pH 8.0, 100 mM NaCl, 5 mM DTT, 5% glycerol, overnight 4°C; Coomassie stained gel; Fig 1A/1C; symbols not defined", "protocol": "The USP7 binding region is found within ICP0 residues 594–633 and mutagenesis studies have shown that K620 is essential for the interaction. In order to facilitate crystallization and structure determination, we set out to identify a shorter peptide that is capable of binding to USP7. To this end, a series of overlapping GST-ICP0 fusions (591–605, 595–609, 599–613, 603–617, 607–621, 611–625, 615–629, 619–633) were prepared (see Fig 1A for sequence details) and used in GST pull-down assays. […] Overall, our GST pull-down assays identified ICP0 residues between 619 and 629 as important mediators of USP7 binding in agreement with a previous study.\nNext we determined which region of USP7-CTD interacted with the ICP0 615–629 peptide. FL-USP7, USP7-CTD as well as Ubl12, Ubl123, Ubl345 and Ubl45 (Fig 1B) were used as prey in GST pull-down assays using GST-ICP0 615–629. FL-USP7 and USP7-CTD were used as positive controls while GST alone and USP7-NTD were used as negative controls.\nas §2"}, "USP7 Ubl123": {"molecular_target": "T2, USP7 Ubl123 (Homo sapiens, UniProt Q93009)", "T2 construct": "Ubl123 (535–889); His tag (inferred from nickel-NTA purification; vector p15TV-L); made in house; host or cells: E. coli BL21(DE3)mgk", "T2 sequence (Q93009 535-889)": "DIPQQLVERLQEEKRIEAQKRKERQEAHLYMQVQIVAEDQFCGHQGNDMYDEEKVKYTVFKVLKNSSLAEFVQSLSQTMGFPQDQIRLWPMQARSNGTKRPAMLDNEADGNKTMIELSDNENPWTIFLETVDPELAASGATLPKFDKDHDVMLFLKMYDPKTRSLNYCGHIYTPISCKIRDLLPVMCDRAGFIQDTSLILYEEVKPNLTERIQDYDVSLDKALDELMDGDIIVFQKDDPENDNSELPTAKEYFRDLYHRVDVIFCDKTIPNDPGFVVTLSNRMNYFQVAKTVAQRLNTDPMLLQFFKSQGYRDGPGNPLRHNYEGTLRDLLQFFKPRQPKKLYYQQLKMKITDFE", "test": "GST pull-down, Ubl123", "assay_type": "binding", "conditions": "mutations within ICP0 615–629, Fig 3D", "protocol": "as §1, §2"}, "[1]": {"test_system": "USP7-CTD mutant D762A/D764A", "test": "GST pull-down, USP7-CTD D762A/D764A", "assay_type": "binding, human", "protocol": "as §1, §2"}, "[2]": {"test_system": "USP7-CTD mutant D762R/D764R", "test": "GST pull-down, USP7-CTD D762R/D764R", "assay_type": "binding, human", "protocol": "as §1\nThe ICP0, GMPS and UHRF1 WT and mutant peptides were cloned into pGEX-2TK and expressed in E. coli BL21(DE3). GST-ICP0 594–775 was obtained from Roger Everett. The GST-ICP0 or GST-GMPS or GST-UHRF1 or GST-ICP0 594–775 cell pellets from 500 ml of LB broth were re-suspended with PBS and lysed using sonication. The cleared lysates were applied to 500 μl of equilibrated glutathione-sepharose beads and incubated with rocking for 60 min at 4°C. Unbound proteins were removed by washing with PBS. Bound proteins were eluted with 50 mM Tris pH 8.0 and 100 mM NaCL containing 30 mM reduced glutathione. […]"}, "USP7-CTD mutant D762A": {"test_system": "USP7-CTD mutant D762A", "test": "GST pull-down, USP7-CTD D762A", "assay_type": "binding, human", "protocol": "as §1, §2"}, "myc-tagged WT USP7": {"test_system": "myc-tagged WT USP7", "test": "Co-immunoprecipitation with myc-tagged WT USP7 from 293T cells", "assay_type": "cell-based, human", "conditions": "anti-myc IP, endogenous protein, Western blot, Fig 5B", "protocol": "(§3) 293T cells were grown in Dulbecco’s modified Eagle’s medium (DMEM) (Gibco) with 10% fetal calf serum. 293T cells at 70% confluence in a 10-cm-diameter dish were transfected with 10 μg pCANmycUSP7 expressing WT USP7 or D762R/D764R (MRGR) USP7 or with pcDNA3.1 (negative control), in each case using 20 μl PolyJet (SignaGen Laboratories) transfection reagent. Cells were transferred to a 15-cm-diameter dish 24 h post-transfection and harvested 48 h post-transfection. For experiments on USP7-ICP0 interactions, 293T cells were co-transfected with 1 μg pCANmycUSP7 expressing WT or D762R/D764R (MRGR) USP7 and either 1 μg pCI-110 ICP0 or 1 μg pcDNA3.1. For controls lacking USP7, 1 μg pCI-110 ICP0 was co-transfected with 1 μg pcDNA3.1. In each case 4 μl PolyJet (SignaGen Laboratories) transfection reagent was used.\nProtein samples were subjected to SDS-PAGE and transferred to nitrocellulose. […]\n293T cells transfected as described above were washed in phosphate-buffered saline (PBS) and lysed on ice for 45 min in a 4x volume of RIPA buffer (50 mM Tris-HCl [pH 8], 150 mM NaCl, 0.1% sodium deoxycholate, 0.5% NP-40) with complete protease inhibitors (Sigma P8340), followed by centrifugation. […] Immunoprecipitated proteins were separated by SDS-PAGE and analyzed by Western blotting, as described above."}, "[3]": {"test_system": "myc-tagged D762R/D764R (MRGR) USP7", "test": "Co-immunoprecipitation with myc-tagged D762R/D764R (MRGR) USP7 from 293T cells", "assay_type": "cell-based, human", "conditions": "anti-myc IP", "protocol": "as §3\nProtein samples were subjected to SDS-PAGE and transferred to nitrocellulose. Membranes were blocked in 5% skim milk in Tris-buffered saline with 1% Tween (TBS-T) and then incubated with antibodies against ICP0 (H1A027 from Virusys Corporation; 1:5000 dilution), myc (sc-40 from Santa Cruz Biotechnology; 1:5000 dilution), NP95/UHRF1 (A301-470A from Bethyl Laboratories; 1:1000 dilution), GMPS (rabbit serum raised against full-length GMPS [17]; 1:5000 dilution) and actin (MA5-15739 from Pierce; 1:20,000 dilution). After washing, blots were probed with goat anti-mouse or goat anti-rabbit peroxidase (Santa Cruz Biotechnology; 1:5000 dilution) and developed using chemiluminescence reagents (Santa Cruz biotechnology).\n293T cells transfected as described above were washed in phosphate-buffered saline (PBS) and lysed on ice for 45 min in a 4x volume of RIPA buffer (50 mM Tris-HCl [pH 8], 150 mM NaCl, 0.1% sodium deoxycholate, 0.5% NP-40) with complete protease inhibitors (Sigma P8340), followed by centrifugation. 1 mg of each clarified lysate was incubated with 1 μg of anti-myc antibody for 1h, followed by incubation with 30 μl of A/G PLUS agarose resin (Santa Cruz Biotechnology) for 2 h at 4°C with end-over-end rotation. The resin was harvested by centrifugation, washed in RIPA buffer, and then boiled in SDS loading buffer. Immunoprecipitated proteins were separated by SDS-PAGE and analyzed by Western blotting, as described above."}},
  "data": [
    {"substance": "RKCARKTRHAETSGA [ICP0 619–633, GST-ICP0 fusion of ICP0 residues 619–633]", "values": [
      {"measurement": "Interaction with USP7-CTD (overlapping GST-ICP0 peptides)", "setting": "USP7-CTD", "result": "strongest interaction"},
      {"measurement": "Interaction with USP7-FL (overlapping GST-ICP0 peptides)", "setting": "FL-USP7", "result": "strongest interaction"}
    ]},
    {"substance": "RRKK", "values": [
      {"measurement": "Binding of mutant GST-ICP0 peptides to Ubl123", "setting": "USP7 Ubl123", "result": "lacked detectable binding"}
    ]},
    {"substance": "TGKGKWKR [UHRF1 peptide, UHRF1 peptide with KxxxK motif, residues 642–649]", "values": [
      {"measurement": "Binding to USP7-CTD mutant D762A/D764A", "setting": "[1]", "result": "disrupted"},
      {"measurement": "Binding to USP7-CTD mutant D762R/D764R", "setting": "[2]", "result": "disrupted"},
      {"measurement": "Binding to USP7-CTD mutant D762A", "setting": "USP7-CTD mutant D762A", "result": "disrupted"}
    ]},
    {"substance": "UHRF1: endogenous epigenetic regulator UHRF1 in 293T cells, an E3 ligase", "values": [
      {"measurement": "recovery with WT USP7 (co-IP)", "setting": "myc-tagged WT USP7", "result": "efficiently recovered"},
      {"measurement": "binding relative to recovery with WT USP7", "setting": "[3]; D762R/D764R mutant, endogenous protein, multiple experiments, Fig 5B", "result": "21% (± 6%)"},
      {"measurement": "recovery with D762R/D764R USP7 (co-IP), in words", "setting": "[3]; Western blot, Fig 5", "result": "significantly decreased"}
    ]}
  ]
}
